# Assay results: PubChem BioAssay (NCI)
#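 In this assay, cells in 96-well plates receive the compound at five concentrations for 48 hours. Endpoints are linearly interpolated between the surrounding concentrations. At the GI50, growth is halved. TGI: concentration producing complete growth inhibition.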
# Tests used:
# Experiment in all cases: NCI-60 cell line screen, 48 h
# A549 NSCLC = test system: A549 NSCLC
# M14 melanoma = test system: M14 melanoma
# NCI-H226 lung = test system: NCI-H226 lung
# SN12C renal = test system: SN12C renal
# OVCAR-4 ovarian = test system: OVCAR-4 ovarian
# SF-268 CNS = test system: SF-268 CNS
# SNB-19 CNS = test system: SNB-19 CNS
# EKVX NSCLC = test system: EKVX NSCLC
# HT29 colon = test system: HT29 colon
# OVCAR-3 ovarian = test system: OVCAR-3 ovarian
Structure (SMILES),GI50 (A549 NSCLC) [µM],TGI (A549 NSCLC) [µM],GI50 (M14 melanoma) [µM],TGI (M14 melanoma) [µM],GI50 (NCI-H226 lung) [µM],TGI (NCI-H226 lung) [µM],GI50 (SN12C renal) [µM],TGI (SN12C renal) [µM],GI50 (OVCAR-4 ovarian) [µM],TGI (OVCAR-4 ovarian) [µM],GI50 (SF-268 CNS) [µM],TGI (SF-268 CNS) [µM],GI50 (SNB-19 CNS) [µM],TGI (SNB-19 CNS) [µM],GI50 (EKVX NSCLC) [µM],TGI (EKVX NSCLC) [µM],GI50 (HT29 colon) [µM],TGI (HT29 colon) [µM],GI50 (OVCAR-3 ovarian) [µM],TGI (OVCAR-3 ovarian) [µM]
C(=N\Nc1ncc(-c2cc3cc4c(cc3o2)OCO4)s1)/c1ccco1,1.79,6.87,2.9,11.6,3.67,18.9,2.97,12.7,1.27,12.2,2.67,23.1,4.73,23.1,2.25,10.9,2.99,7.62,,
CC1=C([Te]c2ccccc2)C(=O)c2ccccc2C1=O,0.298,1.23,0.424,1.76,,,0.311,1.47,1.63,3.53,0.383,1.64,0.551,2.56,0.207,0.76,0.344,1.36,1.04,2.23
O=C1Nc2c(Cl)cc(Cl)cc2/C1=N/N=C/c1ccco1,,> 100,,> 100,,59.2,,82.1,,> 100,,,,> 100,,84.9,,> 100,,95.1
COc1ccc(C(=O)C2CCC(C(=O)O)C2)cc1 (stereo not drawn),,> 100,,> 100,,> 100,,> 100,,> 100,,,,> 100,,> 100,,> 100,,> 100
CSC(=O)C[C@@]12O[C@@H]([C@@H](C)C3CCC4[C@@H]5C(O)CC6=CC(=O)C=C[C@]6(C)C5CC[C@@]43C)C[C@](C)(O1)C(C)(C)O2 (stereo partly drawn),,32,,33.3,,38.7,,31.5,,28.3,,34.6,,33.8,,,,27.6,,30.2
CCN(CC)CCN(CC)CC.CCN(CC)CCN(CC)CC.[Cu+2].[Cu+2].[O-][Cl+3]([O-])([O-])[O-].[OH3+].[OH3+],30.2,> 100,> 100,> 100,,,90.7,> 100,27.7,51.2,23.9,50.3,22,36.6,,,25.6,87.9,23.9,55.8
C=C(C)[C@@H]1CC[C@]2(CO)CC[C@]3(C)[C@H](CC[C@@H]4[C@@]5(C)CCCNC(C)(C)[C@@H]5CC[C@]43C)[C@@H]12,1.73,3.24,1.58,3.13,1.98,4.09,1.62,3.03,,,1.74,3.54,1.75,3.2,1.55,3.03,,,1.66,3.13
NC(=S)N/N=C/c1ccc(OC(=O)COc2cc(Cl)c(Cl)cc2Cl)cn1,24.4,> 100,2.38,5.75,15.8,56.7,3.58,> 100,4.83,> 100,3.52,43.6,5.87,> 100,,,17.7,> 100,3.39,58.2
CCOC(=O)c1ccc(-n2cnc(-c3ccc([N+](=O)[O-])cc3)c2)cc1,,> 100,,> 100,,> 100,,> 100,,,,> 100,,> 100,,> 100,,> 100,,> 100
Cc1cccc(-c2nnc3s/c(=C\c4ccc(N(C)C)cc4)c(=O)n23)c1,,> 100,,> 100,,> 100,,> 100,,> 100,,> 100,,> 100,,> 100,,,,> 100
Cc1c(Cn2c(C)nc3c(C(=O)O)cc(N4CCOCC4)cc32)cccc1C(F)(F)F,54.3,> 100,37.1,> 100,67.2,> 100,41.5,> 100,42.4,> 100,56,> 100,> 100,> 100,,,57.3,> 100,52.3,> 100
CSc1ccc(C2=NN(C(C)=O)C(c3ccc(-c4cc(Cl)c(Cl)cc4Cl)o3)C2)cc1 (stereo not drawn),17,33,,,13.9,27.3,14.5,27.6,13.4,26.8,16.3,32.2,17.9,32.3,14.9,30.6,12.9,26.7,15.3,37.8
c1ccc(SC(Sc2ccccc2)=C2CCC2)cc1,,> 100,,> 100,,,,> 100,,> 100,,> 100,,> 100,,> 100,,,,> 100
CC1(C)N=C(N)N=C(N)N1c1ccc(CNC(=O)Nc2ccc(S(=O)(=O)F)c(Cl)c2)c(Cl)c1,0.56,> 100,1.24,> 100,13.7,> 100,0.867,> 100,4.57,> 100,0.686,> 100,3.64,> 100,,,0.195,> 67.3,6.34,> 100
Cc1ccc(NCC2(/N=C/c3ccccc3)OC(CO)C(O)C2O)cc1 (stereo not drawn),,> 100,,> 100,,> 100,,,,> 100,,> 100,,> 100,,,,> 100,,> 100
C=CCC1(C(=O)OC)CCC/C(=N\O)C1 (stereo not drawn),,> 10,,> 10,,,,> 10,,> 10,,> 10,,> 10,,,,> 10,,> 10
CN(C)c1ccc(/C=c2\sc3nnc(-c4ccco4)n3c2=O)cc1,,> 100,,> 100,,> 100,,> 100,,> 100,,> 100,,> 100,,> 100,,,,> 100
